Experimental findings from ChEMBL document CHEMBL1129395, “Targeting the minor groove of DNA: crystal structures of two complexes between furan derivatives of berenil and the DNA dodecamer d(CGCGAATTCGCG)2” (1996) are described below.

Common to all, as to type: functional
Assay [1] relates to Cryptosporidium parvum. Nature of the assay: percentage of controls is reported as the counted oocysts obtained from alimentary tract tissues using a blinded protocol on Cryptosporidium parvum at dose of 62 umol/kg/day.
The test system of assay [2] is Pneumocystis carinii. Nature of the assay: Percentage of control was reported as the counted cysts in lung tissue using blinded protocol of saline-treated controls on Pneumocystis carinii at dose of 22.1 umol/kg/day.
Assay [3] can be described thus: In vitro increase in thermal melting of oligomer d(CGCGAATTCGCG)2.
Assay [4] has as its system Pneumocystis carinii. Nature of the assay: in vivo activity against Pneumocystis carinii at dose of 22.1 umol/kg/day.

As to `N=C(N)c1ccc(OCCCCCOc2ccc(C(=N)N)cc2)cc1` [PENTAMIDINE], the Of control in assay [1] was determined as 20.8%; in assay [2], 1.47%. Also, in assay [3], the ΔTm is 4.8. The molecule also had a Toxicity in assay [4] of 2.
